Source: paper PMC10475101, “Selective steroidogenic cytochrome P450 haem iron ligation by steroid-derived isonitriles” (Communications Chemistry, 2023)

Tests used:
[1] = target: T1, CYP17A1 (Homo sapiens, UniProt P05093); experiment: biochemical
T1 construct: made in house
T1 sequence (P05093 24-508 limits assumed): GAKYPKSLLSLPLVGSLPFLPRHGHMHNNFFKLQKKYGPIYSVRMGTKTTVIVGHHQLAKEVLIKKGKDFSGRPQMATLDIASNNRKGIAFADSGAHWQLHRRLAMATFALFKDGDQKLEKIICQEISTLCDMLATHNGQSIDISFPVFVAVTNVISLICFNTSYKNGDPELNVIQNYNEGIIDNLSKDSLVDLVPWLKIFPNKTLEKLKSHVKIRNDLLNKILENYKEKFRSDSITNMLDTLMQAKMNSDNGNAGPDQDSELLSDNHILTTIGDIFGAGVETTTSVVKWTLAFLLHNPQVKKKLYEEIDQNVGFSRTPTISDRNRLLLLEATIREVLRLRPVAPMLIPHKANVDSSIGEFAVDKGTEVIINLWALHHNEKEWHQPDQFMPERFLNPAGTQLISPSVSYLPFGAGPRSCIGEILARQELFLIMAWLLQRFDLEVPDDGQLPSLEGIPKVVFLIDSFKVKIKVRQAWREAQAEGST
Description: Metabolic activity of CYP17A1 was evaluated by measuring 17α-hydroxylation of progesterone as detected by HPLC with UV detection at 240 nm. A 1:4 ratio of CYP17A1 to recombinant NADPH-cytochrome P450 reductase was mixed and incubated on ice for 20 min. […] Reaction vials were warmed to 37 °C for 3 min, then catalysis was initiated by adding NADPH to a final concentration of 1 mM. After 10 min, metabolism was quenched by adding 300 µL of 20% trichloroacetic acid and placed on ice. The reaction vials were centrifuged to pellet the precipitated protein, then the supernatant was injected onto a C18 column for HPLC identification of product. Metabolite elution was normalized to β-estradiol as an internal standard. A standard curve of known product concentrations was used to convert normalized area under curve to amount of product produced. A four-parameter variable-slope equation was used to fit the data and calculate IC50 values for inhibitors using GraphPad Prism 9.
196 by HPLC with UV detection at 240 nm. A 1:4 ratio of CYP17A1 to recombinant NADPH-cytochrome P450
197 reductase was mixed and incubated on ice for 20 minutes. This mixture was added to buffer (50 mM Tris, pH
199 Reaction vials were warmed to 37 °C for three minutes, then catalysis was initiated by adding NADPH to a
200 final concentration of 1 mM. After 10 minutes, metabolism was quenched by adding 300 µL of 20%
201 trichloroacetic acid and placed on ice. The reaction vials were centrifuged to pellet the precipitated protein,
202 then the supernatant was injected onto a C18 column (Phenomenex, Luna, 50 x 4.6 mm) for HPLC. The 30-
203 minute HPLC method ran at 0.8 mL/min and started with a mobile phase of 60% acetonitrile, 40% water with
204 0.2% acetic acid for five minutes, in creased to 80% acetonitrile over 10 minutes, held at 80% acetonitrile for
205 five minutes, 100% acetonitrile for five minutes, then returned to 60% acetonitrile to prepare for the next
206 sample. Metabolite elution was normalized to β-estradiol as an internal standard. A standard curve of known
207 product concentrations was used to convert normalized area under curve to amount of product produced. A
208 four-parameter variable-slope equation (Y=Ymin + (Ymax-Ymin)/(1+(IC50/X)^(Hill Slope))) was used to fit the data
209 and calculate IC50 values for inhibitors using GraphPad Prism 9.

[2] = target: T2, CYP3A4 (Homo sapiens, UniProt P08684); assay type: biochemical; details: concentrations up to 100 µM
T2 construct: made in house
Description: (Adapted from Bart & Scott)[28]. Metabolic activity of CYP3A4 was evaluated by measuring metabolism of nifedipine to dehydronifedipine […], as detected by HPLC with UV detection at 254 nm. Reactions were carried out in amber microcentrifuge tubes (NFP is light sensitive) in a final volume of 150 μl. A 1:2 ratio of CYP3A4 to recombinant NADPH-cytochrome P450 reductase was mixed and incubated at room temperature for 20 min. This mixture was added to buffer (40 mM HEPES, 30 mM MgCl2, pH 7.4) containing 0.1 mM NFP and increasing concentrations of 1c (0–100 µM). Reaction vials were warmed to 37 °C for 3 min, then catalysis was initiated by adding NADPH to a final concentration of 1 mM. After 20 min, metabolism was quenched by adding 50 µL acetonitrile and placed on ice. […]
187 a baseline absorbance reading from 400 to 500 nm using a UV-visible scanning spectrophotometer, of a 1cm […]
190 phosphate buffer (pH 7.4), 20% glycerol, and 100 mM sodium chloride). A small quantity of sodium dithionite
191 (spatula tip-full) was then added to the cuvette, and the spectra were recorded periodically over time to […]
195 Metabolic activity of CYP17A1 was evaluated by measuring 17α-hydroxylation of progesterone as detected […]
212 dehydronifedipine, as detected by HPLC with UV detection at 254 nm. […]

T2 sequence (P08684 23-503 limits assumed): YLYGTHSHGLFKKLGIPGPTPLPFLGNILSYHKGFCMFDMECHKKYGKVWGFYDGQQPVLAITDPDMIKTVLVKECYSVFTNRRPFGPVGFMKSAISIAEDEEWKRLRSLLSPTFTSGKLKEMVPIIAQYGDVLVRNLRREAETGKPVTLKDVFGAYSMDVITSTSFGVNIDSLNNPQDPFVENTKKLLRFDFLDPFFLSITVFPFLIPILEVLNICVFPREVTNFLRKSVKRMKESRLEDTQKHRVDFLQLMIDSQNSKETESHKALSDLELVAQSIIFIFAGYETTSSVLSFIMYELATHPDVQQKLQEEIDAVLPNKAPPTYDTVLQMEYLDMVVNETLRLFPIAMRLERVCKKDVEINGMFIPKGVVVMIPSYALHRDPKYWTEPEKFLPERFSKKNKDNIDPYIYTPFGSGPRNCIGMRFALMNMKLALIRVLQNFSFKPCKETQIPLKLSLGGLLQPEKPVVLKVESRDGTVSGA

[C-]#[N+][C@H](C)[C@H]1CC[C@H]2[C@@H]3CC[C@H]4C[C@@H](OC=O)CC[C@]4(C)[C@H]3CC[C@]12C [Compound 1, 3β-formyl-5α-pregnanolone-(R)-20-isonitrile]
IC50 [1]: 1.3 µM | slope of the inhibition curve ([1]; CYP17A1 progesterone hydroxylation): 2.4 | inhibition of CYP3A4-catalyzed nifedipine oxidation [2]: no inhibition
